The values that follow come from patent US9796711B2, “Substituted pyrazolo[3,4-b]pyridin-6-carboxylic acids and method of use” (AbbVie S.àr.l., priority 2015, dated 2017).

Each structure is given as a SMILES string.

Assay [1] concerns the target T1, ΔF508-CFTR (Homo sapiens, UniProt P13569, DEL508-508).
T1 construct: host or cells: CFBE41o-, doxycycline-inducible
Description: CFTR cell surface levels using HRP-tagged ΔF508-CFTR expressing CFBE cells, in the presence of a co-corrector. It is filed as cell-based. Particulars: HRP-tagged ΔF508-CFTR expressing CFBE cells, in the presence of 3 μM co-corrector; for EC50: read-out: EC50. The procedure, abridged:
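Cells were seeded with 0.5 μg/mL doxycycline and held 68 h at 37 °C. Test compounds plus 3 μM co-corrector (final 0.1% DMSO) were then added for 20 h at 33 °C. Washed cells received HRP substrate, and luminescence was normalized between DMSO and 3 μM co-corrector controls.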

Assay [2] deals with T1, ΔF508-CFTR. Kind of assay: CFTR cell surface levels using HRP-tagged ΔF508-CFTR expressing CFBE cells, intrinsic corrector capacity. It is filed as cell-based. To be noted: for EC50: read-out: EC50. The procedure, abridged: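 Here the cells express ΔF508-CFTR with horseradish peroxidase inserted in extracellular loop 4, so only rescued channel at the surface gives luminescent signal. Compounds act on their own, 20 h at the reduced temperature of 33 °C; values are percent activity relative to DMSO and a 3 μM corrector.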

Where [3] appears, read: HRP-tagged ΔF508-CFTR expressing CFBE cells, intrinsic corrector capacity (no co-corrector), 33° C., 20 hours.
Where [4] appears, read: HRP-tagged ΔF508-CFTR CFBE41o- cells, compounds alone (intrinsic corrector capacity), 20 hours at 33° C., positive control 3 μM corrector.
The mark [5] stands for this setting: HRP-tagged ΔF508-CFTR CFBE41o- cells, compounds alone (intrinsic corrector capacity), 20 hours at 33° C.

T1 sequence (P13569 with tags, fused parts or gaps DEL508-508): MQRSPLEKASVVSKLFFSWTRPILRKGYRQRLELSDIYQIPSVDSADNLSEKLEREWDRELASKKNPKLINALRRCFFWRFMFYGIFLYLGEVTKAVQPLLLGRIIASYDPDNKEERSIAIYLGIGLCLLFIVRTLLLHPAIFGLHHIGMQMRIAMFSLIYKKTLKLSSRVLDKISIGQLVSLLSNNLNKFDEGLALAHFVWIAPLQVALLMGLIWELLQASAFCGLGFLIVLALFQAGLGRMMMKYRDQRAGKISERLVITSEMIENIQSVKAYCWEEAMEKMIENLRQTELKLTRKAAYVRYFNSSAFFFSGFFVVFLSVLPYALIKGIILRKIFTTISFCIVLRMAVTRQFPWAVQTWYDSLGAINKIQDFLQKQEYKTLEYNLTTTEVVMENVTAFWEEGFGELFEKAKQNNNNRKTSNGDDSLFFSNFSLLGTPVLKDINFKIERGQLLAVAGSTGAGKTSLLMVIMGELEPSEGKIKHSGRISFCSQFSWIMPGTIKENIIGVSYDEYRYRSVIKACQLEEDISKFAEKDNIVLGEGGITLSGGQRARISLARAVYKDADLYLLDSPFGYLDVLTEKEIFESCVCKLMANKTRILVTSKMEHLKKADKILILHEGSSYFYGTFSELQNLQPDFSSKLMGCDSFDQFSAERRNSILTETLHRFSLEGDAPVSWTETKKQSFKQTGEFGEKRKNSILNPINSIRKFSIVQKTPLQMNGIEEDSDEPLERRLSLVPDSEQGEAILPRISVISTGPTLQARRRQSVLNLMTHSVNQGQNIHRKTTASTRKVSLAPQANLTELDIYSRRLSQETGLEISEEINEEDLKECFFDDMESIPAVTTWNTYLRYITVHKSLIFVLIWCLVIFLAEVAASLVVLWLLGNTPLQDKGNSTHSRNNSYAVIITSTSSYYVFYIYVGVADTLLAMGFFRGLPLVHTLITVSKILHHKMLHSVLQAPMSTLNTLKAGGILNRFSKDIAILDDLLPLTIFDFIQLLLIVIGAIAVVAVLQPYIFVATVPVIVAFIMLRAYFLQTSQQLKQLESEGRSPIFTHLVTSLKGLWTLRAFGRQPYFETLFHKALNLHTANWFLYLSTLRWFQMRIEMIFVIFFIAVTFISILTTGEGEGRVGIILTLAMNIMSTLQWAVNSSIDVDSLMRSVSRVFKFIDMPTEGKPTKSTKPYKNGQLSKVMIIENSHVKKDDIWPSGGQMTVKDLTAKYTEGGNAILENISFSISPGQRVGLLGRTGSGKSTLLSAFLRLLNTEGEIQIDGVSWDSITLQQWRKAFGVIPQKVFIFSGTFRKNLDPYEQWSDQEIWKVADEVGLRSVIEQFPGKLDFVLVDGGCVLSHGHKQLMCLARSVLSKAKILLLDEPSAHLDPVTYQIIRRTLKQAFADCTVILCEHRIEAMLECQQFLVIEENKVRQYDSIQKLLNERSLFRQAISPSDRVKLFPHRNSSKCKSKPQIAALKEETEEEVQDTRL

One may read the EC50 as the concentration needed to bring the measured effect to its halfway point. Turning to `CN1CCC[C@H](Oc2cc(C(=O)O)nc3c2c(C2CCC2)nn3-c2ccccc2)C1` [compound 494, 3-cyclobutyl-4-{[(3S)-1-methylpiperidin-3-yl]oxy}-1-phenyl-1H-pyrazolo[3,4-b]pyridine-6-carboxylic acid], on ΔF508-CFTR [1], the “% Activation” value amounted to 196.7% and the EC50 is 1160 nM. Also, on ΔF508-CFTR [2] (setting [3]), the “% Activation” value is 65.56% and the EC50 worked out at 3280 nM.

Consider `COCCN(C)C1CCN(c2cc(C(=O)O)nc3c2c(C2CCC2)nn3-c2ccc(F)cc2)CC1` [compound 895, 3-cyclobutyl-1-(4-fluorophenyl)-4-{4-[(2-methoxyethyl)(methyl)amino]piperidin-1-yl}-1H-pyrazolo[3,4-b]pyridine-6-carboxylic acid], for which, at ΔF508-CFTR [1], the “% Activation” value was 429.4% and the half-maximal effective concentration (EC50) came to 3330 nM. Also, on ΔF508-CFTR [2] (setting [3]), the “% Activation” value was 178.2% and the 50% effective concentration (EC50) is 1280 nM.

Take `CC(C)c1nn(C2CCC(F)(F)CC2)c2nc(C(=O)O)cc(-c3ccc(N4CCOCC4)cc3)c12` [compound 159, 1-(4,4-difluorocyclohexyl)-4-[4-(morpholin-4-yl)phenyl]-3-(propan-2-yl)-1H-pyrazolo[3,4-b]pyridine-6-carboxylic acid]: the “% Activation” value at ΔF508-CFTR [1] stood at 415.33%; at ΔF508-CFTR [2] (setting [4]) it was 150.16%. Moreover, the concentration giving a half-maximal response (EC50) came to 755 nM at ΔF508-CFTR [1] and 737 nM on ΔF508-CFTR [2] (setting [5]).

Take `COCC(COC)Oc1cc(C(=O)O)nc2c1c(C(C)C)nn2-c1ccc(F)cc1` [compound 654, 4-[(1,3-dimethoxypropan-2-yl)oxy]-1-(4-fluorophenyl)-3-(propan-2-yl)-1H-pyrazolo[3,4-b]pyridine-6-carboxylic acid]: at ΔF508-CFTR [1], the “% Activation” value came out at 245.5% and the concentration giving a half-maximal response (EC50) is 3330 nM. Also, at ΔF508-CFTR [2] (setting [3]), the “% Activation” value was found to be 66.19% and the 50% effective concentration (EC50) was 3330 nM.

Consider `O=C(O)c1cc(N2CCC(N3CCN(C4COC4)CC3)CC2)c2c(C3CCC3)nn(-c3ccc(F)cc3)c2n1` [compound 899, 3-cyclobutyl-1-(4-fluorophenyl)-4-{4-[4-(oxetan-3-yl)piperazin-1-yl]piperidin-1-yl}-1H-pyrazolo[3,4-b]pyridine-6-carboxylic acid], for which, at ΔF508-CFTR [1], the “% Activation” value is reported as 351.9% and the EC50 came out at 309 nM. Besides, on ΔF508-CFTR [2] (setting [3]), the “% Activation” value turned out to be 210.9% and the EC50 amounted to 3100 nM.

Consider `CC(C)c1nn(C2CCCOC2)c2nc(C(=O)O)cc(-c3ccc(N4CCC(C#N)CC4)nc3)c12` (centres unmarked) [compound 365, 4-[6-(4-cyanopiperidin-1-yl)pyridin-3-yl]-1-(oxan-3-yl)-3-(propan-2-yl)-1H-pyrazolo[3,4-b]pyridine-6-carboxylic acid], for which the “% Activation” value at ΔF508-CFTR [1] came to 278.05%; at ΔF508-CFTR [2] (setting [4]) it was 147.55%. Besides, the results for the EC50 at ΔF508-CFTR [1] and at ΔF508-CFTR [2] (setting [5]) were 1540 nM and 2550 nM, respectively.

Regarding `CN1C(=O)CO[C@H]2CN(c3cc(C(=O)O)nc4c3c(C3CCC3)nn4-c3ccccc3)C[C@@H]21` [compound 516, 3-cyclobutyl-4-[(4aS,7aS)-4-methyl-3-oxohexahydropyrrolo[3,4-b][1,4]oxazin-6 (2H)-yl]-1-phenyl-1H-pyrazolo[3,4-b]pyridine-6-carboxylic acid], at ΔF508-CFTR [1], the “% Activation” value is listed as 275.5% and the concentration for a half-maximal effect (EC50) is 723 nM. For the same molecule, at ΔF508-CFTR [2] (setting [3]), the “% Activation” value was determined as 123.4% and the concentration for a half-maximal effect (EC50) worked out at 1110 nM.

Regarding `COC1(C)CCN(c2cc(C(=O)O)nc3c2c(C(C)C)nn3-c2ccc(F)cc2)CC1` [compound 397, 1-(4-fluorophenyl)-4-(4-methoxy-4-methylpiperidin-1-yl)-3-(propan-2-yl)-1H-pyrazolo[3,4-b]pyridine-6-carboxylic acid], on ΔF508-CFTR [1], the “% Activation” value was found to be 217.3% and the half-maximal effective concentration (EC50) was determined as 299 nM. At ΔF508-CFTR [2] (setting [3]), the “% Activation” value is reported as 73.11% and the EC50 is 645 nM.

`Cc1nn(-c2ccccc2)c2nc(C(=O)O)cc(-c3ccc(N4CC[C@H](C#N)C4)cc3)c12` [compound 155, 4-{4-[(3S)-3-cyanopyrrolidin-1-yl]phenyl}-3-methyl-1-phenyl-1H-pyrazolo[3,4-b]pyridine-6-carboxylic acid]: the results for the “% Activation” value at ΔF508-CFTR [1] and at ΔF508-CFTR [2] (setting [4]) were 399.6% and 203.65%, respectively. Also, the EC50 at ΔF508-CFTR [1] was determined as 909 nM; on ΔF508-CFTR [2] (setting [5]), 1350 nM.

As for `CC(C)c1nn(-c2ccc(F)cc2)c2nc(C(=O)O)cc(N3CC(N4CCOCC4)C3)c12` [compound 765, 1-(4-fluorophenyl)-4-[3-(morpholin-4-yl)azetidin-1-yl]-3-(propan-2-yl)-1H-pyrazolo[3,4-b]pyridine-6-carboxylic acid], at ΔF508-CFTR [1], the “% Activation” value is on record as 181.3% and the EC50 is 738 nM. On ΔF508-CFTR [2] (setting [3]), the “% Activation” value was determined as 45.48% and the EC50 amounted to 1670 nM.

With `CC(C)c1nn(-c2cccc(N(C)C)c2)c2nc(C(=O)O)cc(-c3ccc(N4CCC(C#N)CC4)cc3)c12` [compound 176], the “% Activation” value on ΔF508-CFTR [1] was 619.28%; on ΔF508-CFTR [2] (setting [4]), 382.28%. The EC50 amounted to 448 nM on ΔF508-CFTR [1] and 528 nM on ΔF508-CFTR [2] (setting [5]).

For `COCC1CCN(c2cc(C(=O)O)nc3c2c(C(C)C)nn3-c2ccc(F)cc2)CC1` [compound 391, 1-(4-fluorophenyl)-4-[4-(methoxymethyl)piperidin-1-yl]-3-(propan-2-yl)-1H-pyrazolo[3,4-b]pyridine-6-carboxylic acid], the “% Activation” value at ΔF508-CFTR [1] is recorded as 528.7%; on ΔF508-CFTR [2] (setting [4]), 306.23%. Moreover, the EC50 at ΔF508-CFTR [1] worked out at 374 nM; at ΔF508-CFTR [2] (setting [5]), 590 nM.

`CN(C)C[C@H](F)C1CCN(c2cc(C(=O)O)nc3c2c(C2CCC2)nn3-c2ccccc2)CC1` [compound 455, 3-cyclobutyl-4-{4-[(1R)-2-(dimethylamino)-1-fluoroethyl]piperidin-1-yl}-1-phenyl-1H-pyrazolo[3,4-b]pyridine-6-carboxylic acid]: on ΔF508-CFTR [1], the “% Activation” value came out at 421.5% and the EC50 is 452 nM. On ΔF508-CFTR [2] (setting [3]), the “% Activation” value is given as 288.4% and the concentration for a half-maximal effect (EC50) turned out to be 1110 nM.

As to `Cc1cc(N2CCN(c3cc(C(=O)O)nc4c3c(C3CCC3)nn4C3CCCCC3)CC2)ccn1` [compound 864, 3-cyclobutyl-1-cyclohexyl-4-[4-(2-methylpyridin-4-yl)piperazin-1-yl]-1H-pyrazolo[3,4-b]pyridine-6-carboxylic acid], at ΔF508-CFTR [1], the “% Activation” value came out at 458.6% and the EC50 stood at 105 nM. Moreover, on ΔF508-CFTR [2] (setting [3]), the “% Activation” value came to 337.7% and the EC50 turned out to be 1010 nM.

Turning to `COCCN(C)c1ncc(-c2cc(C(=O)O)nc3c2c(C(C)C)nn3C2CCCCC2)cn1` [compound 237, 1-cyclohexyl-4-{2-[(2-methoxyethyl)(methyl)amino]pyrimidin-5-yl}-3-(propan-2-yl)-1H-pyrazolo[3,4-b]pyridine-6-carboxylic acid], the “% Activation” value at ΔF508-CFTR [1] is given as 372.97%; at ΔF508-CFTR [2] (setting [4]), 227%. Also, the half-maximal effective concentration (EC50) on ΔF508-CFTR [1] turned out to be 324 nM; at ΔF508-CFTR [2] (setting [5]) it was 510 nM.

Regarding `Cc1nn(-c2ccccc2)c2nc(C(=O)O)cc(N3CC4(CCCC4)C3)c12` [compound 307, 4-(2-azaspiro[3.4]octan-2-yl)-3-methyl-1-phenyl-1H-pyrazolo[3,4-b]pyridine-6-carboxylic acid], the “% Activation” value at ΔF508-CFTR [1] is 233.4%; on ΔF508-CFTR [2] (setting [4]) it was 77.423%. The EC50 on ΔF508-CFTR [1] was 1540 nM; on ΔF508-CFTR [2] (setting [5]) it was 1920 nM.

For the molecule `Cc1nn(-c2ccccc2)c2nc(C(=O)O)cc(-c3ccc(N4CCN(CCO)CC4)cc3)c12` [compound 107], the entries for the “% Activation” value on ΔF508-CFTR [1] and at ΔF508-CFTR [2] (setting [4]) were 164.5% and 20.98%, respectively. In addition, the concentration for a half-maximal effect (EC50) at ΔF508-CFTR [1] is 3340 nM; on ΔF508-CFTR [2] (setting [5]), greater than 10000 nM.

With `CC(C)c1nn([C@@H]2CCC[C@@H](O)C2)c2nc(C(=O)O)cc(-c3ccc(N4CCOCC4)cc3)c12` (racemic) [compound 194, rac-1-[(1R,3R)-3-hydroxycyclohexyl]-4-[4-(morpholin-4-yl)phenyl]-3-(propan-2-yl)-1H-pyrazolo[3,4-b]pyridine-6-carboxylic acid], the “% Activation” value is reported as 233.9% at ΔF508-CFTR [1] and 86.36% at ΔF508-CFTR [2] (setting [4]). The EC50 was 1250 nM at ΔF508-CFTR [1] and 1710 nM on ΔF508-CFTR [2] (setting [5]).

For the molecule `CC(C)c1nn(C2CCCCC2)c2nc(C(=O)O)cc(-c3ccc(N(C)C4CCOC4)nc3)c12` (centres unmarked) [compound 276, 1-cyclohexyl-4-{6-[methyl(oxolan-3-yl)amino]pyridin-3-yl}-3-(propan-2-yl)-1H-pyrazolo[3,4-b]pyridine-6-carboxylic acid], the results for the “% Activation” value on ΔF508-CFTR [1] and at ΔF508-CFTR [2] (setting [4]) were 407.8% and 206.93%, respectively. The results for the 50% effective concentration (EC50) at ΔF508-CFTR [1] and at ΔF508-CFTR [2] (setting [5]) were 372 nM and 504 nM, respectively.

With `COCC1CCN(c2cc(C(=O)O)nc3c2c(C(C)C)nn3-c2ccnc(N3CCOCC3)c2)CC1` [compound 525, 4-[4-(methoxymethyl)piperidin-1-yl]-1-[2-(morpholin-4-yl)pyridin-4-yl]-3-(propan-2-yl)-1H-pyrazolo[3,4-b]pyridine-6-carboxylic acid], at ΔF508-CFTR [1], the “% Activation” value turned out to be 311.3% and the 50% effective concentration (EC50) came out at 936 nM. In addition, on ΔF508-CFTR [2] (setting [3]), the “% Activation” value was 232.2% and the half-maximal effective concentration (EC50) was 416 nM.
